pIC50: −log10 of the molar value. Like-named read-outs stand apart in the source and are kept apart here.

For assay [1], the target named is T1, human α1G T-type channels (Homo sapiens, UniProt O43497).
T1 construct: expressed in transfected cells
Put plainly: Block of α1G T-type channels, whole-cell patch clamp in HEK cells. The class given is cell-based. To be noted: test pulse −40 mV. How it is done:
Standard patch-clamp techniques were employed to identify blockers of T-type currents. Briefly, previously described HEK cell lines stably expressing human α1G T-type channels were used for all the recordings (passage #: 4-20, 37° C., 5% CO2). To obtain T-type currents, plastic dishes containing semi-confluent cells were positioned on the stage of a ZEISS AXIOVERT S100 microscope after replacing the culture medium with external solution (Table 3). Whole-cell patches were obtained using pipettes (borosilicate glass with filament, O.D.: 1.5 mm, I.D.: 0.86 mm, 10 cm length), fabricated on a SUTTER P-97 puller with resistance values of ˜5 MΩ (Table 4 ).
T-type currents were reliably obtained by using two voltage protocols: “non-inactivating”, and “inactivation”. In the non-inactivating protocol, the holding potential is set at −110 mV and with a pre-pulse at −100 mV for 1 second prior to the test pulse at −40 mV for 50 ms. In the inactivation protocol, the pre-pulse is at approximately −85 mV for 1 second, which inactivates about ^15% of the T-type channels.
Test compounds were dissolved in external solution, 0.1-0.01% DMSO. After ˜10 min rest, they were applied by gravity close to the cell using a WPI microfil tubing. The “non-inactivated” pre-pulse was used to examine the resting block of a compound. The “inactivated” protocol was employed to study voltage-dependent block. However, the initial data shown below were mainly obtained using the non-inactivated protocol only. IC50 values are shown for various compounds of the invention in Table 5.
For orientation: In patch-clamp work, channel activity is measured electrically.

The target in assay [2] is T2, rat brain N-type calcium channel subunits (α1B+α2δ+β1b cDNA subunits) (Rattus norvegicus, UniProt Q02294).
T2 construct: expressed in transfected cells; host or cells: HEK 293
T2 sequence (Q02294 whole entry): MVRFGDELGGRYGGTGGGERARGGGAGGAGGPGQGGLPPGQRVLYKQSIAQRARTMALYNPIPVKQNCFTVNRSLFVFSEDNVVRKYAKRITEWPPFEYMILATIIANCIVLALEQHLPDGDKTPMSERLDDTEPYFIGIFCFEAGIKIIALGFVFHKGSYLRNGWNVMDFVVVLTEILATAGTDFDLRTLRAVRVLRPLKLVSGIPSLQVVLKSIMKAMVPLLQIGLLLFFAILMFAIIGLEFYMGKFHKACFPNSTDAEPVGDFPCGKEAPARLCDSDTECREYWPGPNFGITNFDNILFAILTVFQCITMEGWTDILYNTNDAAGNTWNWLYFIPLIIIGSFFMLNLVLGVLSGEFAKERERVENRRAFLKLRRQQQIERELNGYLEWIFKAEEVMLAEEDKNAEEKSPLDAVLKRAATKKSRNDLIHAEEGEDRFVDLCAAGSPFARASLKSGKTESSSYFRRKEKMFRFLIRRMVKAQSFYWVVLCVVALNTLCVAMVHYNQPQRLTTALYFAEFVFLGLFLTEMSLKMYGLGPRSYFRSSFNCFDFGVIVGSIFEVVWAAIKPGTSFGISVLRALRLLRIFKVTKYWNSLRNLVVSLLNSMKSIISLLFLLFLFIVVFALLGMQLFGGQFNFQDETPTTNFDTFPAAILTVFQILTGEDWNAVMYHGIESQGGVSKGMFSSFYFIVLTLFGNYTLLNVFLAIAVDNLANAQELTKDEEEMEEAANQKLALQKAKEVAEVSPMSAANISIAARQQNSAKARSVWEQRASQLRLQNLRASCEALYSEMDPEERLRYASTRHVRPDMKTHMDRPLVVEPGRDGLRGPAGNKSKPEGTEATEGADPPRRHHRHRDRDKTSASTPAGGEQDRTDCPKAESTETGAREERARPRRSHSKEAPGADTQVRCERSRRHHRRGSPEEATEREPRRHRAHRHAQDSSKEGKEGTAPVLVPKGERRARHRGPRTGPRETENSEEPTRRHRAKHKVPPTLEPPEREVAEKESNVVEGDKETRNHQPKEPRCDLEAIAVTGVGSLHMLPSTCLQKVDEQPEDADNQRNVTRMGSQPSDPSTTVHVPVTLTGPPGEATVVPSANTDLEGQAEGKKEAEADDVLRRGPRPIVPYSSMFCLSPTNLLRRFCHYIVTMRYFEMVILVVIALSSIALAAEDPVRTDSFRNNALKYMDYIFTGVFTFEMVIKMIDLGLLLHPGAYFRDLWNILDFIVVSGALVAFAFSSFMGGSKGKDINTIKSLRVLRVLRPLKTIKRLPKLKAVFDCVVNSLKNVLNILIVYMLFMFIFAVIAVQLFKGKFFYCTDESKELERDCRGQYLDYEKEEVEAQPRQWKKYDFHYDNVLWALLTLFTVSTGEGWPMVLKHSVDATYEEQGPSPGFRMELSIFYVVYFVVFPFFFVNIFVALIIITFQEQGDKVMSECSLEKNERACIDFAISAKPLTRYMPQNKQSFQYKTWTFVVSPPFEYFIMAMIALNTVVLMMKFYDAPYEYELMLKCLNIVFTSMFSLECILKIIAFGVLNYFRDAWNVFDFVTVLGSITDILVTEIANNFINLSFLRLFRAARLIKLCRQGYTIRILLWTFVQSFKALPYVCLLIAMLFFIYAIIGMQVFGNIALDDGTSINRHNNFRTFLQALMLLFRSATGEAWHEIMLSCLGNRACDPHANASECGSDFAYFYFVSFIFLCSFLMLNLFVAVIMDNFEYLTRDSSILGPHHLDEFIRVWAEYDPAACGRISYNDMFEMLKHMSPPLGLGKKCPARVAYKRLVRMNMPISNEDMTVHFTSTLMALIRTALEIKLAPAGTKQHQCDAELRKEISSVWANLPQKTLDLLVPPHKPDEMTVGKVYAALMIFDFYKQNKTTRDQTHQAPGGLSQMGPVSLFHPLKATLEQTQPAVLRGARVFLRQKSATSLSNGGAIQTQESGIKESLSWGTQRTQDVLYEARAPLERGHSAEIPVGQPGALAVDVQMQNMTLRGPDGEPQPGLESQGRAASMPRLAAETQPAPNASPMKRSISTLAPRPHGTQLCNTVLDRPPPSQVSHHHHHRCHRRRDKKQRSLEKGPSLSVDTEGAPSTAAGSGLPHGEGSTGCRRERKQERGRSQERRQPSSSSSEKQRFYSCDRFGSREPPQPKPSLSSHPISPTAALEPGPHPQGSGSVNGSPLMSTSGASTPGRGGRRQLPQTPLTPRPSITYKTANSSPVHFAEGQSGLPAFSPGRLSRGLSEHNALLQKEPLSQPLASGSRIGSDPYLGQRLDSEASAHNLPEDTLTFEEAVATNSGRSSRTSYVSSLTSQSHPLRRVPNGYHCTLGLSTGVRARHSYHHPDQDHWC
T2 sequence (P54290 25-944 partner limits assumed): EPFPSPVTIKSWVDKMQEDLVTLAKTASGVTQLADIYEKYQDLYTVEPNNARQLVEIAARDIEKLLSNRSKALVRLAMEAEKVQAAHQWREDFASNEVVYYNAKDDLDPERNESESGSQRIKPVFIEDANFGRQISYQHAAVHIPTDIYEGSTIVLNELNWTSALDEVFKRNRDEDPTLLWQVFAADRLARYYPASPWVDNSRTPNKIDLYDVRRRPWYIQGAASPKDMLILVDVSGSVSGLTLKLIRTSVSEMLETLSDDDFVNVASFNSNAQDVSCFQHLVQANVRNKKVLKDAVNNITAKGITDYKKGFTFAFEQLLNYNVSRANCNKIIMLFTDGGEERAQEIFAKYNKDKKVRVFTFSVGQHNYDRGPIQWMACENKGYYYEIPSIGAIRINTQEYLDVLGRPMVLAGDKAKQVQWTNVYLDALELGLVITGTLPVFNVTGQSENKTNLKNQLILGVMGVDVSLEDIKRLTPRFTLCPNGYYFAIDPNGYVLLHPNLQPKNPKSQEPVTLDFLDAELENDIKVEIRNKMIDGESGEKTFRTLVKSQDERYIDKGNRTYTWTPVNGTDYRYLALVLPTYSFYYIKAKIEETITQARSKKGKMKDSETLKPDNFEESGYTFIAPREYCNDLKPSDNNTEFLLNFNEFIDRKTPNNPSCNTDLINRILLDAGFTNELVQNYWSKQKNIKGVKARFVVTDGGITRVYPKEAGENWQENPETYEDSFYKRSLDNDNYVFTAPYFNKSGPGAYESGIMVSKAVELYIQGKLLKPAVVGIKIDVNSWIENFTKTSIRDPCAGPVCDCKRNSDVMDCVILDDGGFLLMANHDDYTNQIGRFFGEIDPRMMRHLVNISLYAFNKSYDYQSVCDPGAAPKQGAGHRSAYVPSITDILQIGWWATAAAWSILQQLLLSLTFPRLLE
T2 sequence (P54290 945-1091 partner limits assumed): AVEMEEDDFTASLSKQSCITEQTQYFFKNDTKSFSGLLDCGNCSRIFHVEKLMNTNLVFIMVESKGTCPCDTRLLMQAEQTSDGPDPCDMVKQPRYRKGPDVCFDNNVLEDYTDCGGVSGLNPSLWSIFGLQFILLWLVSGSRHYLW
T2 sequence (P54283 whole entry partner): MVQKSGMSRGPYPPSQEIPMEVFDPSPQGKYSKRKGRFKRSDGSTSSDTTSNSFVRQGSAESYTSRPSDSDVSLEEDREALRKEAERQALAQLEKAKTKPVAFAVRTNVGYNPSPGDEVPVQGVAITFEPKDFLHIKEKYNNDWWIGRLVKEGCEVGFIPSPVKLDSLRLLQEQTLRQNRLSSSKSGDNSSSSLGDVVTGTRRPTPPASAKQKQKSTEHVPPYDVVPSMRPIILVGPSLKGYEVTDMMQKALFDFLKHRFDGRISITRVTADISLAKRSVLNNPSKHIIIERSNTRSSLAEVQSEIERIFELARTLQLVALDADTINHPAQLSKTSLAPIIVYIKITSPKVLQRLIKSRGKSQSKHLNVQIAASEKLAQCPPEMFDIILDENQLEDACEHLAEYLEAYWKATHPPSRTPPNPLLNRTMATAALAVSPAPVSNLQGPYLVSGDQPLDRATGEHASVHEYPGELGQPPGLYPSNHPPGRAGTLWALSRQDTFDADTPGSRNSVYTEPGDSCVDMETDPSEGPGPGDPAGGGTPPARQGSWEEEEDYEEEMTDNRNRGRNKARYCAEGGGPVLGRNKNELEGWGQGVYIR
In words: N-type calcium channel block, whole cell patch clamp in HEK 293 cells. Type of assay: cell-based. The conditions noted are these: holding potential −80 mV to +10 mV, 5 mM BaCl2. The text has this:
Normalized dose-response curves were fit (Sigmaplot 4.0, SPSS Inc., Chicago, Ill.) by the Hill equation to determine IC50 values. Steady-state inactivation curves were plotted as the normalized test pulse amplitude following 5 s inactivating prepulses at +10 mV increments. Inactivation curves were fit (Sigmaplot 4.0) with the Boltzman equation, Ipeak (normalized)=1/(1+exp((V-Vh)z/25.6)), where V and Vh are the conditioning and half inactivation potentials, respectively, and z is the slope factor.
The methods of Example 11 were followed with slight modifications as will be apparent from the description below.
N-type calcium channel blocking activity was assayed in human embryonic kidney cells, HEK 293, stably transfected with the rat brain N-type calcium channel subunits (α1B+α2δ+β1b cDNA subunits). Briefly, cells were cultured in Dulbecco's modified eagle medium (DMEM) supplemented with 10% fetal bovine serum, 200 U/ml penicillin and 0.2 mg/ml streptomycin at 37° C. with 5% CO2. At 85% confluency, cells were split with 0.25% trypsin/1 mM EDTA and plated at 10% confluency on glass coverslips. At 12 hours the medium was. replaced and the cells transfected using a standard calcium phosphate protocol and the appropriate calcium channel cDNAs. Fresh DMEM was supplied and the cells transferred to 28° C./5% CO2. Cells were incubated for 1 to 2 days to whole cell recording.
Whole cell patch clamp experiments were performed using an Axopatch 200B amplifier (Axon Instruments, Burlingame, Calif.) linked to a personal computer equipped with pCLAMP software. The external and internal recording solutions contained, respectively, 5 mM BaCl2, 10 mM MgCl2, 10 mM HEPES, 40 mM TEACl, 10 mM glucose, 87.5 mM CsCl (pH 7.2) and 108 mM CsMS, 4 mM MgCl2, 9 mM EGTA, 9 mM HEPES (pH 7.2). Currents were typically elicited from a holding potential of −80 mV to +10 mV using Clampex software (Axon Instruments). Typically, currents were first elicited with low frequency stimulation (0.067 Hz) and allowed to stabilize prior to application of the compounds. The compounds were then applied during the low frequency pulse trains for two to three minutes to assess tonic block, and subsequently the pulse frequency was increased to 0.2 Hz to assess frequency dependent block. Data were analyzed using Clampfit (Axon Instruments) and SigmaPlot 4.0 (Jandel Scientific).

Setting [3] is: −80 mV (inactivation protocol), read-out: IC50 at −80 mV.
Setting [4] is: −100 mV (non-inactivating protocol), read-out: IC50 at −100 mV.
Setting [5] is: frequency dependent block, pulse frequency 0.2 Hz, read-out: IC50 at 0.2 Hz.
The mark [6] stands for this setting: tonic block, low frequency stimulation 0.067 Hz, read-out: IC50 at 0.067 Hz.

Regarding `CN(C(=O)CC(c1ccccc1)c1ccccc1)[C@@H]1CCN(C(c2ccccc2)c2ccncc2)C1` (stereo partly drawn) [Compound P10, (R)-N-Methyl-3,3-diphenyl-N-[1-(phenyl-pyridin-4-yl-methyl)-pyrrolidin-3-yl]-propionamide], the pIC50 in assay [1] (setting [3]) is 6.05; in assay [1] (setting [4]), 5.46; in assay [2] (setting [5]), 6.28; in assay [2] (setting [6]) it was 6.15.
Turning to `CN(C(=O)CC(c1ccccc1)c1ccccc1)[C@@H]1CCN(C(c2ccccc2)c2ccccc2)C1` [Compound P3, (R)-N-(1-Benzhydryl-pyrrolidin-3-yl)-N-methyl-3,3-diphenyl-propionamide], the pIC50 in assay [1] (setting [3]) was 6.44; in assay [1] (setting [4]) it was 6.04; in assay [2] (setting [5]) it was 7.36; in assay [2] (setting [6]), 6.95.
For the compound `CN(C(=O)CC(c1ccccc1)c1ccccc1)[C@@H]1CCN(Cc2cccnc2)C1` [Compound P8, (R)-N-Methyl-3,3-diphenyl-N-(1-pyridin-3-ylmethyl-pyrrolidin-3-yl)-propionamide], in assay [1] (−80 mV (inactivation protocol)), the “IC50 at −80 mV” value was “No block”. In assay [1] (−100 mV (non-inactivating protocol)), the “IC50 at −100 mV” value was “No block”. In addition, the pIC50 in assay [2] (setting [5]) is 6.01; in assay [2] (setting [6]) it was 5.52.
Regarding `CN(C(=O)NC(c1ccccc1)c1ccccc1)[C@H]1CCN(C(c2ccccc2)c2ccccc2)C1` [Compound P16, (S)-3-Benzhydryl-1-(1-benzhydryl-pyrrolidin-3-yl)-1-methyl-urea], the pIC50 in assay [1] (setting [3]) is 6.03; in assay [1] (setting [4]), 5.66; in assay [2] (setting [5]) it was 6.22; in assay [2] (setting [6]), 5.99.
For `CN(C(=O)CC(c1ccccc1)c1ccccc1)[C@H]1CCN(Cc2ccncc2)C1` [Compound P13, (S)-N-Methyl-3,3-diphenyl-N-(1-pyridin-4-ylmethyl-pyrrolidin-3-yl)-propionamide], in that order: 6.31, 5.30, 6.33 and 6.04.
In the case of `CN(C(=O)CC(c1ccccc1)c1ccccc1)[C@@H]1CCN(C(c2ccccc2)c2cccnc2)C1` (stereo partly drawn) [Compound P11, (R)-N-Methyl-3,3-diphenyl-N-[1-(phenyl-pyridin-3-yl-methyl)-pyrrolidin-3-yl]-propionamide], the pIC50 in assay [1] (setting [3]) was 6.43; in assay [1] (setting [4]), 5.74; in assay [2] (setting [5]), 6.52; in assay [2] (setting [6]), 6.41.
For `CN(C(=O)CC(c1ccccc1)c1ccccc1)[C@H]1CCN(C(c2ccccc2)c2ccccc2)C1` [Compound P6, (S)-N-(1-Benzhydryl-pyrrolidin-3-yl)-N-methyl-3,3-diphenyl-propionamide], the negative-log IC50 (pIC50) in assay [1] (setting [3]) is 6.34; in assay [1] (setting [4]), 5.94; in assay [2] (setting [5]), 6.44; in assay [2] (setting [6]), 6.20.
The like results for `CN(CC(=O)N(c1ccccc1)c1ccccc1)[C@H]1CCN(C(c2ccccc2)c2ccccc2)C1` [Compound P15, (S)-2-[(1-Benzhydryl-pyrrolidin-3-yl)-methyl-amino]-N,N-diphenyl-acetamide] were, in that order, 6.94, 6.16, 6.67 and 6.54.
As to `CN(C(=O)CC(c1ccccc1)c1ccccc1)[C@@H]1CCN(C(c2ccccc2)c2ccccn2)C1` (stereo partly drawn) [Compound P12, (R)-N-Methyl-3,3-diphenyl-N-[1-(phenyl-pyridin-2-yl-methyl)-pyrrolidin-3-yl]-propionamide], the pIC50 in assay [1] (setting [3]) is 6.47; in assay [1] (setting [4]) it was 6.19; in assay [2] (setting [5]), 6.55; in assay [2] (setting [6]) it was 6.44.
The like results for `CN(C(=O)CC(c1ccccc1)c1ccccc1)[C@@H]1CCN(Cc2ccccn2)C1` [Compound P9, (R)-N-Methyl-3,3-diphenyl-N-(1-pyridin-2-ylmethyl-pyrrolidin-3-yl)-propionamide] were, in that order, 5.62 to 6.80, 5.35 to 6.82, 6.21 and 5.89.
Take `CN(C(=O)CN(c1ccccc1)c1ccccc1)[C@H]1CCN(C(c2ccccc2)c2ccccc2)C1` [Compound P14, (S)-N-(1-Benzhydryl-pyrrolidin-3-yl)-2-diphenylamino-N-methyl-acetamide]: the pIC50 in assay [1] (setting [3]) was 7.00; in assay [1] (setting [4]) it was 6.22; in assay [2] (setting [5]) it was 6.60; in assay [2] (setting [6]), 6.44.

In general, pIC50 refers to the negative decadic logarithm of the IC50, by convention in mol/L.

The values are drawn from patent publication US7507760B2, “N-type calcium channel blockers” (Neuromed Pharmaceuticals Ltd., priority 2004, dated 2009).
